Results published in ChEMBL document CHEMBL1130529, “Synthesis and biological activity of 1,2,3,4-tetrahydroquinoline and 3,4-(1H)-dihydroquinolin-2-one analogs of retinoic acid” (Bioorg Med Chem Lett, 1997).

Legend:
[1] = molecular target: T1, Ornithine decarboxylase (Mus musculus) (UniProt P00860); assay: Inhibition of ornithine decarboxylase activity in hairless mouse skin in vivo; type: organism-based
T1 sequence (whole entry): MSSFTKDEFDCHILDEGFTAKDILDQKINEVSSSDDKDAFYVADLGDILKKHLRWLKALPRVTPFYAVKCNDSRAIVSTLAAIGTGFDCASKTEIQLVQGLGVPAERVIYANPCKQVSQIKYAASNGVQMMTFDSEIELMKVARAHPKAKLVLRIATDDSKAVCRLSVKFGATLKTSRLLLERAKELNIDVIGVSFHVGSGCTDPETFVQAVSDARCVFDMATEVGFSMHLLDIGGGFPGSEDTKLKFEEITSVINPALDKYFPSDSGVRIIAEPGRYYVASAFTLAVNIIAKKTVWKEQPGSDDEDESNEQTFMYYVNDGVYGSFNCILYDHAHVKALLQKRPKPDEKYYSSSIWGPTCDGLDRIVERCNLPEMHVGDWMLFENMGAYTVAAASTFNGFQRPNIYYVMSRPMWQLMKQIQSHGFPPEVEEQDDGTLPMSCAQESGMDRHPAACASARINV

[2] = molecular target: T2, Retinoic acid receptor alpha (Homo sapiens, UniProt P10276); assay: Binding affinity for Retinoic acid receptor alpha
T2 sequence (P10276 whole entry): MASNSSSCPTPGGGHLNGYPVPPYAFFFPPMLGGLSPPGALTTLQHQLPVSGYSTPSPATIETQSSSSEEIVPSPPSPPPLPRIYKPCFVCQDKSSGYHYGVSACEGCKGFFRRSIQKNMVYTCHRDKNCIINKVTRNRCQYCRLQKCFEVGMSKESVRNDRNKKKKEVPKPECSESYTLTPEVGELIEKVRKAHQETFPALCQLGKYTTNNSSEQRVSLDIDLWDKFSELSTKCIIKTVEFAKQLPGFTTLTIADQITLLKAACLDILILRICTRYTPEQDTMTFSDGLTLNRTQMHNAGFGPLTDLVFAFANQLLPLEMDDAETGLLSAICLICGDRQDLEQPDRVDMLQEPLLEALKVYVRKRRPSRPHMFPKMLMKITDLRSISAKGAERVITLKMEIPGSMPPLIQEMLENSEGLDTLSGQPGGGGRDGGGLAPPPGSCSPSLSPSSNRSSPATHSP

[3] = molecular target: T2, Retinoic acid receptor alpha; assay: Transactivation potency for Retinoic acid receptor alpha
[4] = molecular target: T3, Retinoic acid receptor beta (Homo sapiens, UniProt P10826); assay: Binding affinity for Retinoic acid receptor beta
T3 sequence (P10826 whole entry): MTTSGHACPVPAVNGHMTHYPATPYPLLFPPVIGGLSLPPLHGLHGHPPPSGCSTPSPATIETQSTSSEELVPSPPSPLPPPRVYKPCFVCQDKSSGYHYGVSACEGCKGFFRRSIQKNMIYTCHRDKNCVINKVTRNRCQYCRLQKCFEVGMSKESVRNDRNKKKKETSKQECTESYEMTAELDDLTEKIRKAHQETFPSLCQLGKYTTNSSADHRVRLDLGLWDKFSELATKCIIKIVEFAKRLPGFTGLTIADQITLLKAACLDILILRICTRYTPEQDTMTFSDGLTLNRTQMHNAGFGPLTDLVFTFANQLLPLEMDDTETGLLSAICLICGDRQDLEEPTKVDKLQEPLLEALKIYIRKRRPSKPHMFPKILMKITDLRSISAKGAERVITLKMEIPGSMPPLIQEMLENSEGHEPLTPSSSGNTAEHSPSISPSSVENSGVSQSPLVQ

[5] = molecular target: T4, Retinoic acid receptor gamma (Homo sapiens, UniProt P13631); assay: Transactivation potency for Retinoic acid receptor gamma
T4 sequence (P13631 whole entry): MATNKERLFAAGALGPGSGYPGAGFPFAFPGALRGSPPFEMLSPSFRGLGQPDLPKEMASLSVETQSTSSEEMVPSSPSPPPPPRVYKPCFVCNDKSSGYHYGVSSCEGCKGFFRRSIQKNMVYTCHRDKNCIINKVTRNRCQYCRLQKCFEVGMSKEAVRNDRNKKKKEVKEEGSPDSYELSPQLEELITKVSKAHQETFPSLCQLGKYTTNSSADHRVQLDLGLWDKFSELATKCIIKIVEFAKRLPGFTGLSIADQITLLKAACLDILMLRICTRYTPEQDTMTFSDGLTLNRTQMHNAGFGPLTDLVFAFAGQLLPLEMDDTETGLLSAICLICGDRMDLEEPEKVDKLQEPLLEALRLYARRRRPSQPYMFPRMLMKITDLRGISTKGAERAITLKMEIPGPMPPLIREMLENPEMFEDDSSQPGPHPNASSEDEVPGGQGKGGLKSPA

[6] = molecular target: T3, Retinoic acid receptor beta; assay: Transactivation potency for Retinoic acid receptor beta
[7] = molecular target: T4, Retinoic acid receptor gamma; assay: Binding affinity for Retinoic acid receptor gamma
[8] = molecular target: T2, Retinoic acid receptor alpha; assay: Transactivation potency for Retinoic acid receptor alpha; Not active
[9] = molecular target: T2, Retinoic acid receptor alpha; assay: Binding affinity for Retinoic acid receptor alpha; Not active
[10] = molecular target: T4, Retinoic acid receptor gamma; assay: Transactivation potency for Retinoic acid receptor gamma; Not active
[11] = molecular target: T3, Retinoic acid receptor beta; assay: Transactivation potency for Retinoic acid receptor beta; Not active

Structure (SMILES)	IC60 [1] [nM]	Kd [2] [nM]	Kd [4] [nM]	EC50 [5] [nM]	EC50 [6] [nM]	Kd [7] [nM]	EC50 [8]	also measured
CCCCCCCN1CCC(C)(C)c2cc(C#Cc3ccc(C(=O)OCC)cc3)ccc21	> 300	–	–	–	–	–	–	–
CCOC(=O)c1ccc(C#Cc2ccc3c(c2)N(C(C)C)C(=O)CC3(C)C)cc1	2.9	–	–	–	–	–	–	–
CCOC(=O)c1ccc(C#Cc2ccc3c(c2)C(C)(C)CCN3C(C)C)cc1	0.4	–	–	–	–	–	–	–
CC1(C)CCNc2ccc(C#Cc3ccc(C(=O)O)cc3)cc21	–	5200	714	130	170	2420	–	EC50 [3]: 2300 nM
CCOC(=O)c1ccc(C#Cc2ccc3c(c2)NCCC3(C)C)cc1	7	–	–	–	–	–	–	–
CC(C)N1CCC(C)(C)c2ccc(C#Cc3ccc(C(=O)O)cc3)cc21	–	52	18	3	3	52	–	EC50 ([8]; read-out: EC50): 17 nM
CCOC(=O)c1ccc(C#Cc2ccc3c(c2)NC(=O)CC3(C)C)cc1	> 300	–	–	–	–	–	–	–
CC(C)N1C(=O)CC(C)(C)c2cc(C#Cc3ccc(C(=O)O)cc3)ccc21	–	136	17	4	4	17	Not Active	–
CC(C)N1CCC(C)(C)c2cc(C#Cc3ccc(C(=O)O)cc3)ccc21	–	627	60	6	10	72	Not Active	–
CC1(C)CC(=O)Nc2cc(C#Cc3ccc(C(=O)O)cc3)ccc21	–	> 1000	> 1000	200	1000	> 1000	Not Active	–
CCOC(=O)c1ccc(C#Cc2ccc3c(c2)N(C(C)C)CCC3(C)C)cc1	< 0.1	–	–	–	–	–	–	–
CCOC(=O)c1ccc(C#Cc2ccc3c(c2)C(C)(C)CC(=O)N3C(C)C)cc1	6	–	–	–	–	–	–	–
CCOC(=O)c1ccc(/C=C(\C)c2ccc3c(c2)C(C)(C)CCC3(C)C)cc1	0.33	–	–	–	–	–	–	–
CCOC(=O)c1ccc(C#Cc2ccc3c(c2)C(C)(C)CC(=O)N3)cc1	> 300	–	–	–	–	–	–	–
CCCCCCCN1CCC(C)(C)c2cc(C#Cc3ccc(C(=O)O)cc3)ccc21	–	> 1000	> 1000	260	280	> 1000	Not Active	–
CC(C)N1C(=O)CC(C)(C)c2ccc(C#Cc3ccc(C(=O)O)cc3)cc21	–	58	18	20	4	23	Not Active	–
CC1(C)CCNc2cc(C#Cc3ccc(C(=O)O)cc3)ccc21	–	–	211	54	36	233	Not Active	Kd [9]: Not Active
CC1(C)CC(=O)Nc2ccc(C#Cc3ccc(C(=O)O)cc3)cc21	–	> 1000	> 1000	–	–	> 1000	Not Active	EC50 [10]: Not Active; EC50 [11]: Not Active
CCOC(=O)c1ccc(C#Cc2ccc3c(c2)C(C)(C)CCN3)cc1	5	–	–	–	–	–	–	–
CC1=C(/C=C/C(C)=C/C=C/C(C)=C/C(=O)O)C(C)(C)CCC1	1.4	–	–	–	–	–	–	–
